Legend:
[1] = test system: Boophilus microplus, Biarra strain (resistant); assay: In-vitro test for ovicidal effect on ticks (Biarra strain); conditions: for Ovicidal effect: 50% inhibition with the stated concentration of active compound: Table 4, concentration giving 50% inhibition; for Ovicidal effect: >50% inhibition with the stated concentration of active compound: concentration giving >50% inhibition
Experimental: (§1) In-vitro Test for Ovicidal Effect on Ticks
The emulsion concentrate so obtained is diluted with water to the application concentration desired in each case.
After immersion of, in each case, 10 female specimens of the various strains of ticks, the individual ticks are transferred to plastic dishes, the bottom of each of which is covered with a disc of filter paper.

[2] = test system: Boophilus, Biarra strain; assay: In-vitro test for adulticidal effect on ticks (24 hours); design: species or system Boophilus microplus; conditions: Table 4, after 24 hours, at the concentrations stated
Experimental: (§2) In addition, the adulticidal effectiveness of the preparation of the given active compound after 24 hours is determined by ascertaining the voluntary movement of limbs and bodies of the immersed adult ticks after stimulation with a fine needle compared with the voluntary movement of limbs and bodies of the untreated adult ticks. The effectiveness is stated in %, 100% meaning that no movements of any kind of the limbs and bodies were any longer detectable, and 0% signifying that the ticks moved limbs and bodies in normal manner.

[3] = test system: Boophilus microplus, Biarra strain; assay: In-vivo test against ticks on cattle; design: species or system Boophilus microplus (on cattle); conditions: 0.3%; for Total number of female adult ticks which reach development on the cattle: total 1-21 days
Experimental: In-vivo test against ticks on cattle
3 parts of the particular active compound are mixed with 7 parts of a mixture of equal parts by weight of ethyleneglycol monomethyl ether and nonylphenyl polyglycol ether. The emulsion concentrate so obtained is diluted with water to the application concentration desired in each case.
Cattle which have been infected (12 times at intervals of 2 days) with resistant larvae of ticks of the species Boophilus microplus, Biarra strain, are sprayed on the 24th day after the first infection with the preparation of the given active compound so obtained.
The effect of the preparation of the given active compound is determined by ascertaining the number of adult female ticks which have reached development on the treated cattle and later lay viable eggs. This number is compared with the number of adult femal ticks which have reached development on untreated cattle.
As a measure of the intensity of the infestation before treatment, there is used the number of adult females which reach development in the case of the treated and untreated animals in the last three days before the time of treatment.

[4] = test system: Boophilus, Biarra strain; assay: In-vitro test for ovicidal and adulticidal effect on ticks; design: species or system Boophilus microplus
Experimental: In-vitro test for ovicidal and adulticidal effect on ticks
The ovicidal effect is determined as stated in Example 1.
as §2
The results below were obtained in a similar manner to those in accordance with Example 4.

[5] = test system: Boophilus microplus, Ridgeland strain (resistant); assay: In-vitro test for ovicidal effect on ticks (Ridgeland strain); conditions: Table 1b, * Ridgeland strain; for Ovicidal effect: 100% inhibition with the stated concentration of active compound: concentration giving 100% inhibition; for Ovicidal effect: >50% inhibition with the stated concentration of active compound: concentration giving >50% inhibition
Experimental: as §1
3 g of the particular active compound are mixed with 7 g of a mixture of equal parts by weight of ethyleneglycol monomethyl ether and nonylphenyl polyglycol ether. The emulsion concentrate so obtained is diluted with water to the application concentration desired in each case.
Adult, fully engorged female ticks of the species Boophilus microplus (resistant) are immersed for 1 minute in this preparation of the given active compound. After immersion of, in each case, 10 female specimens of the various strains of ticks, the individual ticks are transferred to plastic dishes, the bottom of each of which is covered with a disc of filter paper. As a control, similar ticks of a normally sensitive strain are treated in exactly the same manner.
After 35 days, the effectiveness of the preparation of the given active compound is determined by ascertaining the inhibition of the depositing of fertile eggs compared with the egg depositing of untreated control ticks. The effect is stated in %, 100% meaning that fertile eggs ceased to be deposited, and 0% signifying that the ticks have deposited eggs in normal manner like the untreated control ticks.

[6] = ovicidal only (marked not adulticidal)
[7] = Table 4, concentration giving 100% inhibition, ovicidal only (marked not adulticidal)
[8] = Table 1b, concentration giving 100% inhibition
[9] = days before treatment -2 -1 0 (baseline)
[10] = Table 5, concentration giving 50% inhibition
[11] = Table 5, concentration giving 100% inhibition
[12] = Table 4, concentration giving 50% inhibition
[13] = Table 4, concentration giving 100% inhibition

Structure (SMILES)	Adulticidal and ovicidal effect: 50% inhibition with the stated concentration of active compound [4, 10]	Adulticidal and ovicidal effect: 100% inhibition with the stated concentration of active compound [4, 11]	Adulticidal and ovicidal effect: 50% inhibition with the stated concentration of active compound [4, 12]	Adulticidal and ovicidal effect: 100% inhibition with the stated concentration of active compound [4, 13]	other results
C=CCN1CCCC1=Nc1cc(Cl)c(Cl)cc1Cl	–	–	–	–	Ovicidal effect: 50% inhibition with the stated concentration of active compound [1, 6]: 0.02 % by weight; Ovicidal effect: 100% inhibition with the stated concentration of active compound [1, 7]: 0.03 % by weight; Adulticidal effect [2]: not adulticidal
CCCN1CCCC1=Nc1ccc(F)cc1Cl	–	–	–	–	Ovicidal effect: 50% inhibition with the stated concentration of active compound [1, 6]: 0.03 % by weight; Ovicidal effect: 100% inhibition with the stated concentration of active compound [1, 7]: 0.1 % by weight; Adulticidal effect [2]: not adulticidal
C=CCN1CCCC1=Nc1ccc(Cl)cc1C	–	–	–	–	Ovicidal effect: 50% inhibition with the stated concentration of active compound [1, 6]: 0.02 % by weight; Ovicidal effect: 100% inhibition with the stated concentration of active compound [1, 7]: 0.03 % by weight; Adulticidal effect [2]: not adulticidal
CCCCN1CCCC1=Nc1ccc(Cl)c(Cl)c1 [Compound 71]	–	–	–	–	Ovicidal effect: 100% inhibition with the stated concentration of active compound [1, 8]: 0.03 % by weight; Ovicidal effect: >50% inhibition with the stated concentration of active compound ([1]; Table 1b): 0.01 % by weight; Number of female adult ticks which reach development on the cattle ([3]; days after treatment +1+2+3): 3; Number of female adult ticks which reach development on the cattle ([3]; days after treatment +4+5+6): 1; Number of female adult ticks which reach development on the cattle ([3]; days after treatment +7+8+9): 0; Number of female adult ticks which reach development on the cattle ([3]; days after treatment +10+11+12): 11; Number of female adult ticks which reach development on the cattle ([3]; days after treatment +13+14+15): 1; Number of female adult ticks which reach development on the cattle ([3]; days after treatment +16+17+18): 2; Number of female adult ticks which reach development on the cattle ([3]; days after treatment +19+20+21): 0; Number of female adult ticks which reach development on the cattle [3, 9]: 231; Total number of female adult ticks which reach development on the cattle [3]: 18
C=C(C)CN1CCCC1=Nc1ccc(C)c(Cl)c1	0.03 % by weight	0.1 % by weight	–	–	–
CCN1CCCC1=Nc1ccc(Cl)c(Br)c1	–	–	0.05 % by weight	0.1 % by weight	–
C=CCCN1CCCC1=Nc1ccc(Cl)c(Cl)c1	0.1 % by weight	0.3 % by weight	–	–	–
C=CCN1CCCC1=Nc1cccc(Cl)c1Cl	–	–	–	–	Ovicidal effect: 50% inhibition with the stated concentration of active compound [1, 6]: 0.008 % by weight; Ovicidal effect: 100% inhibition with the stated concentration of active compound [1, 7]: 0.01 % by weight; Adulticidal effect [2]: not adulticidal
CCCN1CCCC1=Nc1ccc(Cl)cc1C [Compound 211]	–	–	–	–	Ovicidal effect: 100% inhibition with the stated concentration of active compound [5]: 0.1 % by weight; Ovicidal effect: >50% inhibition with the stated concentration of active compound [5]: 0.03 % by weight
CCCCN1CCCC1=Nc1ccc(Br)c(C)c1	0.05 % by weight	0.1 % by weight	–	–	–
CCCCN1CCCC1=Nc1ccc(F)cc1Cl	–	–	–	–	Ovicidal effect: 50% inhibition with the stated concentration of active compound [1, 6]: 0.01 % by weight; Ovicidal effect: 100% inhibition with the stated concentration of active compound [1, 7]: 0.03 % by weight; Adulticidal effect [2]: not adulticidal
C=CCN1CCCC1=Nc1ccc(Br)c(C)c1	0.03 % by weight	0.1 % by weight	–	–	–
CCCCN1CCCC1=Nc1ccc(F)c(Cl)c1	–	–	0.03 % by weight	0.1 % by weight	–
C=CCN1CCCC1=Nc1ccc(F)c(Cl)c1	–	–	0.08 % by weight	0.1 % by weight	–
CCN1CCCC1=Nc1ccc(F)c(Cl)c1	–	–	0.1 % by weight	0.3 % by weight	–
CC=CCN1CCCC1=Nc1ccc(Cl)c(C)c1	0.02 % by weight	0.03 % by weight	–	–	–
C=CCN1CCCC1=Nc1ccc(C)c(Br)c1	0.03 % by weight	0.1 % by weight	–	–	–

Structure (SMILES)	Adulticidal and ovicidal effect: 50% inhibition with the stated concentration of active compound [4, 10]	Adulticidal and ovicidal effect: 100% inhibition with the stated concentration of active compound [4, 11]	Adulticidal and ovicidal effect: 50% inhibition with the stated concentration of active compound [4, 12]	Adulticidal and ovicidal effect: 100% inhibition with the stated concentration of active compound [4, 13]	other results
C=CCN1CCCC1=Nc1ccc(Cl)c(Br)c1	–	–	0.05 % by weight	0.1 % by weight	–
C=C(C)CN1CCCC1=Nc1ccc(Cl)cc1C	0.02 % by weight	0.03 % by weight	–	–	–
CCCN1CCCC1=Nc1ccc(F)c(Cl)c1	–	–	0.03 % by weight	0.1 % by weight	–
C=CCN1CCCC1=Nc1ccc(Cl)c(Cl)c1 [Compound 41]	–	–	–	–	Ovicidal effect: 100% inhibition with the stated concentration of active compound [1, 8]: 0.03 % by weight; Ovicidal effect: >50% inhibition with the stated concentration of active compound ([1]; Table 1b): 0.01 % by weight; Number of female adult ticks which reach development on the cattle ([3]; days after treatment +1+2+3): 0; Number of female adult ticks which reach development on the cattle ([3]; days after treatment +4+5+6): 0; Number of female adult ticks which reach development on the cattle ([3]; days after treatment +7+8+9): 7; Number of female adult ticks which reach development on the cattle ([3]; days after treatment +10+11+12): 6; Number of female adult ticks which reach development on the cattle ([3]; days after treatment +13+14+15): 4; Number of female adult ticks which reach development on the cattle ([3]; days after treatment +16+17+18): 0; Number of female adult ticks which reach development on the cattle ([3]; days after treatment +19+20+21): 0; Number of female adult ticks which reach development on the cattle [3, 9]: 262; Total number of female adult ticks which reach development on the cattle [3]: 17
C=CCN1CCCC1=Nc1ccc(C)c(Cl)c1	–	–	0.01 % by weight	0.03 % by weight	–
CC=CCN1CCCC1=Nc1cc(Cl)c(Cl)cc1Cl	0.03 % by weight	0.1 % by weight	–	–	–
C=C(C)CN1CCCC1=Nc1ccc(Cl)c(C)c1	0.01 % by weight	0.1 % by weight	–	–	–
C=C(C)CN1CCCC1=Nc1cc(Cl)c(Cl)cc1Cl	0.1 % by weight	0.3 % by weight	–	–	–
CC=CCN1CCCC1=Nc1ccc(Cl)c(Cl)c1	–	–	0.03 % by weight	0.01 % by weight	–
Cc1cc(Cl)ccc1N=C1CCCN1C(C)C [Compound 241]	–	–	–	–	Ovicidal effect: 100% inhibition with the stated concentration of active compound [5]: 1.0 % by weight; Ovicidal effect: >50% inhibition with the stated concentration of active compound [5]: 0.3 % by weight
C=C(C)CN1CCCC1=Nc1ccc(Cl)cc1Cl	0.01 % by weight	0.03 % by weight	–	–	–
C=CCCN1CCCC1=Nc1ccc(C)c(Cl)c1	0.02 % by weight	0.03 % by weight	–	–	–
C=C(C)CN1CCCC1=Nc1ccc(Cl)c(Cl)c1	0.03 % by weight	0.1 % by weight	–	–	–
C=CCN1CCCC1=Nc1ccc(Br)c(Br)c1	–	–	0.05 % by weight	0.1 % by weight	–
CCCCN1CCCC1=Nc1ccc(Cl)c(Br)c1	–	–	0.03 % by weight	0.1 % by weight	–
CC=CCN1CCCC1=Nc1ccc(Cl)cc1C	0.008 % by weight	0.01 % by weight	–	–	–
